Data reported in patent US20250313544A1, “INHIBITORS OF GLUTATHIONE S-TRANSFERASE ZETA 1 (GSTZ1) AND METHODS OF USE” (H. LEE MOFFITT CANCER CENTER AND RESEARCH INSTITUTE, INC., priority 2022, published 2025).

Experiments:
[1] = tested on: HCC366 cells harboring mutated DDR2; assay: Cell viability assay (CellTiter-Glo) in HCC366 cells; type: cell-based, human; conditions: probe combined with dasatinib in HCC366 cells, dose of 10 μM (FIG. 9F)
Description: (§1) Cells were seeded in Corning 384-well black walled/clear bottom microplates with a density of 1,000 cells/well and treated with indicated drugs and concentrations following cell attachment for 24 h. After 72 h or 96 h, as indicated, cell viability was evaluated with CellTiter-Glo (Promega, Madison, WI) according to manufacturer's recommendations. An M5 Spectramax plate reader (Molecular devices) was used to read the plates with 500 ms integration. Data was processed and analyzed using Excel and GraphPad Prism 9.0.

H1792 cells = assay: In-gel fluorescence analysis of probe-labeled proteins after photocrosslinking in live H1792 cells; type: binding, human; conditions: compared to vehicle
Description: Cells were grown in 10 cm dishes to ˜90% confluence at the time of treatment. Cells were carefully washed twice with Dulbecco's phosphate buffered saline (DPBS) and replenished with fresh serum-free RPMI 1640 media containing indicated probes ([…]), competitors, or DMSO. Without competitors, cells were incubated with probes for 30 min at 37° C. and then exposed to 365 nm UV light for 15 min on ice. With competitors, cells were pre-treated with competitors for 30 min and photoactivated for 15 min. Probes were then added to cells for an additional 30 min incubation. For no UV experiments, cells were incubated for 15 min under ambient light. Cells were harvested in cold DPBS and pellets were washed with cold DPBS (2 X). Pellets were either directly processed or kept frozen at −80° C. until use. Cells pellets were lysed for 30 min in cold DPBS (100-300 uL) per culture dish supplemented with 1% NP-40, followed by sonication (5 pulses, 4 s on, 20 s off, output setting=4). Lysates were centrifuged at 20,817×g for 20 min, and supernatant (soluble proteome) was used for further processing. Protein concentrations were determined using Bradford assays.
To 1 mg of protein, were added a mixture of TBTA (Tris((1-benzyl-4-triazolyl)methyl)amine, 60 μL/sample, 1.7 mM in 1:4 DMSO: t-BuOH stock), CuSO4 (20 μL/sample, 50 mM in H2O), TCEP (tris(2-carboxyethyl) phosphine, 20 μL/sample, 50 mM in DPBS, made fresh) and Biotin-Azide conjugate (10 μL/sample, 10 mM in DMSO stock). Each sample was rotated at room temperature for 2 h. To each resultant a cold 4:1 mixture (600 μL) of methanol (MeOH)/chloroform (CHCl3) was added followed by cold PBS (100 μL) on ice. The resulting cloudy mixture was centrifuged (5,000×g, 10 min, 4° C.) to fractionate the protein interface from the organic and aqueous solvent layers. A MeOH:CHCl3 (1:1, 1 mL, 2×) mixture was used to wash protein discs thoroughly. Protein discs were sonicated in cold 4:1 MeOH:CHCl3 (2 mL) mixture. The remaining precipitate was pelleted by centrifugation (5,000×g, 10 min, 4° C.). […] Gels were subjected to fluorescence imaging or Western Blotting.

[2] = tested on: drug-refractory NSCLC cells (H1792, H520, HCC366); assay: Cell viability assay (CellTiter-Glo) across drug-refractory NSCLC cell lines; type: cell-based, human
Description: as §1

Compound: C#CCCC1(CCC(=O)N2CCC(COc3nc4ccccc4nc3C)CC2)N=N1 [Probe 17, 3-(3-(but-3-yn-1-yl)-3H-diazirin-3-yl)-1-(4-(((3-methylquinoxalin-2-yl)oxy)methyl)piperidin-1-yl)propan-1-one]
- sensitization of cells towards dasatinib [1]: significantly enhanced the sensitivity
- proteome labeling by probe (in-gel fluorescence) (H1792 cells): efficiently labeled a wide range of proteins
- single agent activity (cell viability) [2]: moderate single agent activity
- cellular activity of probes (cell viability) ([2]; single agent): displayed activity toward multiple tested cell lines
- relative potency among active probes (cell viability) ([2]; single agent): more potent
